From patent US12503426B2, “Synthetic derivatives of oleoyl-lysophosphatidylinositol (oleoyl-LPI) and uses thereof” (LIPOVEXA SRL, priority 2017, dated 2025)

Experiments:
NCI-H716 cells = test: GLP-1 secretion in NCI-H716 cells, in vitro human L cells model (Examples 30-33); assay type: cell-based
Method: To evaluate the GLP-1 biosynthesis and secreting capabilities of the compounds of formula I in vitro using the human-derived cell line NCI-H716, 50,000 such cells were seeded per well of a 24-well plate pre-coated with a thin layer of Matrigel (0.15 mg/ml) in RPMI complete (RPMI additioned with FBS 10%, Glucose 2 g/L, Glutamine 4 mM, Sodium Bicarbonate 2 g/L, Pen/Strep 1× pH 7.4 at 37° C.) and incubated at 37° C. in humidified 5% CO2 atmosphere to induce endocrine differentiation.
After 48 hours, media was withdrawn and cells washed once with warm HBSS (Hank's balanced salt solution) and then incubated in duplicate for 2 hours with the different dilutions of the oleoyl-LPI, OEA, DMSO (as negative control), a test compound of formula I, and KR-62436 10 μg/ml, all dissolved in RPMI serum free (RPMI complete without FBS) at 37° C. in humidified 5% CO2 incubator. Supernatant were quickly collected on ice and stored at −80° C. before quantification of GLP-1 with a commercial ELISA (EMD Millipore) specific for active-GLP-1 species.
To evaluate the GLP-1 biosynthesis and secreting capabilities of the compounds of formula I in vitro using the human-derived cell line NCI-H716, 50,000 such cells were seeded per well of a 24-well plate pre-coated with a thin layer of Matrigel (0.15 mg/ml) in RPMI complete (RPMI additioned with FBS 10%, Glucose 2 g/L, Glutamine 4 mM, Sodium Bicarbonate 2 g/L, Pen/Strep 1×pH 7.4 at 37° C.) and incubated at 37° C. in humidified 5% CO2 atmosphere to induce endocrine differentiation.
After 48 hours, media was withdrawn and cells washed twice with pre-warm HBSS (Hank's balanced salt solution) and then incubated in duplicate for 2 hours with 250 μl of 20 μM of either oleoyl-LPI, DMSO (as negative control) or a test compound of formula I, and […], all dissolved in RPMI serum free (RPMI complete without FBS) at 37° C. in humidified 5% CO2 incubator. Compounds of formula I tested were ps297b, ps316a, ps318a, ps319a, ps321a and ps323.
Supernatant were quickly collected on ice and stored at −80° C. before quantification of GLP-1 with a commercial ELISA (EMD Millipore) specific for active-GLP-1 species (e.g., GLP-1 (7-36) amide) and […]).
Compounds of formula I were tested for GLP-1 secretion in NCI-H716 cells essentially as describe in examples 30 and 31 above. EC50 GLP-1 secretion readout results were standardized relative to maximum GLP-1 secretion obtained with oleoyl-LPI. EC50 readout results were rated as low GLP-1 secretion activity (0-20% of maximum GLP-1 secretion achieved with oleoyl-LPI), moderate (21-79% of maximum GLP-1 secretion achieved with oleoyl-LPI), and high GLP-1 activity (80% and more of maximum GLP-1 secretion achieved with oleoyl-LPI). Table 3 also outlines the R1, R2 and R3 substituents of the compounds of formula I.

[1] = system: colonic cells of the GI tract obtained from guinea pig; test: Ex vivo GLP-1 biosynthesis and secretion, guinea pig GI tract cells; assay type: cell-based
Method: To test for this, a pregnant guinea pig was anesthetized with isoflurane and sacrificed via intra-cardial injection of pentobarbital. Colon and rectum were quickly collected and intraluminal content washed out with ice-cold HBSS. After a thorough cleansing from the faecal material, and gentle scraping of the internal mucosa, the tissue was minced into 3 to 5-millimetre pieces and resuspended into 50 ml of ice cold HBSS. Pellet was spun down and washed again in 50 ml of ice-cold HBSS. Supernatant was carefully removed, and the epithelial fragments were then resuspended for 30 minutes at 37° C. into a 5 ml solution of HEPES 25 mM, collagenase-P 1 mg/ml in HBSS, pH 7.4 at 37° C.
The tissue was then pelleted and resuspended further for about 30 to 40 additional minutes at 37° C. within a 10 ml solution of 1 mg/ml collagenase-P as above.
After the digestion, about 40 ml of pre-warmed DMEM complete media was added (FBS 10%, glucose 4.5 g/L, glutamine 4 mM, sodium pyruvate 1 mM, HEPES 25 mM, sodium bicarbonate 3.7 g/L, Pen/Strep 1× and Ciprofloxacin 10 μg/ml pH 7.4 at 37° C.). Crypts and individual cells were isolated with a […] nylon strainer, spun down at 200 g for 5 minutes, resuspended into 10 ml of DMEM complete media and plated into 20 wells of a 24-well plate coated with a 3D gel of 3 mg/ml Matrigel (BD, Biosciences, Oxford, UK). After one day of incubation at 37° C. 5% CO2 in a humidified incubator, cells were washed with 500 μl of warm HBSS, and treated with 250 μl DMEM serum free (Complete medium without FBS) additioned with KR-62436 10 μg/ml and individually the following drugs or compounds: Forskolin and IBMX (20 μM each), oleoyl-LPI, and the two oleoyl-LPI analogs and/or derivatives ps297b (prepared as described in example 13) and ps316a (prepared as described in example 22) were all tested in quadruplicate at 20 μM.
After a 2-hour long incubation at 37 C 5% CO2, the supernatants were collected on ice, and quickly stored at […]. Active GLP-1 levels (7-37 amide and 7-36) were quantified on 50 μl of supernatant with an ELISA commercial kit (EMD Millipore). DMSO was used as a negative control, the combination of Forskolin and IBMX was included as positive control activators GLP-1. GLP-1 levels measured were standardized against the DMSO control.
The EC50 levels each one of oleoyl-LPI, compound ps297b and compound ps316a were also measured in quadruplicates at the conclusion of the 2 hour incubation. Guinea pig cells obtained as described above were also incubated with […] in quadruplicates and subjected to 2-hour long incubation at 37 C 5% CO2 as described above and EC50 levels measured.

Danio rerio larvae = test: Zebrafish toxicity test; assay type: in vivo; conditions: two-days old larvae treated for 3 days; heartbeat, movement, teratogenicity; preliminary experiment
Description: About two-days old Danio rerio larvae may be dechorionated and treated for about 3 days with increasing amount of any synthetic compound of formula I or salt or solvate thereof of this invention. The cardiotoxicity effect of the compound or salt or solvate may be assessed by measuring the heartbeat, the movement, and teratogenicity (hatching rate, mortality rate (LD50). The experiment may be repeated for three times or more times e.g., with about 10 larvae per concentration tested.
Two-days old Danio rerio larvae were dechorionated and treated for 3 days with increasing amount of a synthetic compound of formula I such as ps297b.

wild type mice = test: Oral Glucose GLP-1 secretion test; assay type: in vivo; conditions: oral gavage 20 mg/kg, samples 2 minutes post glucose load, N=3
Method: Active GLP-1 levels were measured in samples collected 2 minutes post glucose load. N=3
In a slight variation on the above method GLP-1 measurement in mice can be carried out by Peripheral GLP-1 stimulation and measurement in C57bl/6J mice. After 6 hours of fasting, the mice are weighed, and drug volumes are calculated. […] At 2 minutes post-glucose gavage, a blood sample is collected from the submandibular vein into an EDTA coated prechilled tube containing a panel of protease inhibitors. The plasma is separated by spinning at 1,500 g for 20 minutes at 4 C. the plasma is then collected and snap frozen on dry ice and store at −20 C before proceeding with hormone quantification. For hormone quantification the samples are thawed and total GLP-1 levels are quantified, GLP1(7-36)amide+GLP-1(9-36)amide, in 20 μL of plasma with the commercial ELISA kit from Millipore EZGLP1T-36K. This method is also described in Windelov J A et al Diabetologia. […]
Mice were sampled at about 2 minutes post glucose load, 20 μl of arterial blood may be sampled in K3-EDTA and KR-62436 containing tubes to collect plasma and samples are quickly store at −80° C. Plasma samples of 4 to 6 animals may be pool together and assayed to quantify the levels of active GLP-1 (such as GLP-1 (7-36)amide) using commercially available ELISA kits. […] Active GLP-1 levels were measured in samples collected 2 minutes post glucose load. […]

For `CCCCCCCC/C=C\CCCCCCCC(=O)Nc1ccc(-c2nnn[nH]2)cc1` [ps297b], the “GLP-1 biosynthesis and secretion from NCI-H716 L cells” value (NCI-H716 cells; 20 μM, 2 hours, normalized against DMSO vehicle control) was “able to mediate GLP-1 biosynthesis and secretion”, the “level of GLP-1 biosynthesis and secretion compared with oleoyl-LPI” value (NCI-H716 cells; NCI-H716 cells, 20 μM, 2 hours) was “comparable to that of oleoyl-LPI” and the “GLP-1 secretion Activity relative to oleoyl-LPI” value (NCI-H716 cells; NCI-H716 cells, standardized relative to maximum GLP-1 secretion obtained with oleoyl-LPI) was “High (high GLP-1 activity (80% and more of maximum GLP-1 secretion achieved with oleoyl-LPI))”. The “activity in inducing and/or increasing secretion of GLP-1 from cells of the GI tract” value (NCI-H716 cells; summary statement, compared with oleoyl-LPI) was “equal to or higher than oleoyl-LPI”, the “GLP-1 biosynthesis and secretion ex vivo” value ([1]; 20 μM, 2 hours, standardized against DMSO control) was “stimulated biosynthesis and secretion” and the “stability after incubation ex vivo” value ([1]; 2 hours incubation ex vivo) was “remained stable after 2 hours incubation ex vivo”. The EC50 ([1]; Cavia porcellus, ex vivo incubation 2 hours, quadruplicates) was 30 µM, the “concentration with no sign of toxicity” value (Danio rerio larvae) was “up to 200 micromolar” and the “GLP-1 release (active GLP-1 levels)” value (wild type mice) was “increasing GLP-1 release”.
